The values below are quoted from earlier work in patent US4127534A, “Novel tripeptides, intermediates therefor and pharmaceutical compositions and methods employing said tripeptides” (priority 1977, dated 1978).

For data set [1], the system named is partially purified brain opiate receptor sites.
The conditions of data set [2]: injected directly into the brain of the rat.

Consider “H-Tyr-Gly-Gly-Phe-Met-OH [methionine enkephalin]”, for which, in data set [1], the “binding to partially purified brain opiate receptor sites” value is listed as “binds stereo-specifically”. Further, the analgesic activity result in data set [2] is on record as “only weak analgesic agent of short duration”.
